Test results from patent US20250163119A1, “COMPOUNDS FOR THE TREATMENT OF DIABETES OR OBESITY” (Eli Lilly and Company, priority 2023, published 2025).
*1 amine or outer side, *2 acyl side, *3 side chain or, on linkers, in order; H or OH if unused. Where a SMILES comes first, the peptide text is derived from it. Side-chain parts run from the residue outwards. [ ]: non-standard residue; d: D form. The star is where a group is joined. C20 diacid = O=C(O)CCCCCCCCCCCCCCCCCCC(=O)*; γGlu = O=C(O)[C@H](CCC(=O)[*:2])N[*:1]; εLys = N[C@@H](CCCCN[*:1])C(=O)[*:2]; NMeI = CC[C@H](C)[C@H](NC)C(=O)O; αMeL = CC(C)C[C@](C)(N)C(=O)O; AEEA = NCCOCCOCC(=O)O; Aib = CC(C)(N)C(=O)O

Key:
human CRHR2 = target: T1, human CRHR2 (Homo sapiens, UniProt Q13324); experiment: Human CRHR2 cAMP assay (HTRF) in HEK293 cells stably expressing human CRHR2; assay type: cell-based; conditions: HEK293 cells overexpressing human CRHR2; relative EC50, maximum 10 nM human UCN2; mean ± SE; read-out: hCRHR2 cAMP EC50 (pM, ± SE)
T1 construct: expressed in transfected cells
T1 sequence (Q13324 1-438 isoform Q13324-2): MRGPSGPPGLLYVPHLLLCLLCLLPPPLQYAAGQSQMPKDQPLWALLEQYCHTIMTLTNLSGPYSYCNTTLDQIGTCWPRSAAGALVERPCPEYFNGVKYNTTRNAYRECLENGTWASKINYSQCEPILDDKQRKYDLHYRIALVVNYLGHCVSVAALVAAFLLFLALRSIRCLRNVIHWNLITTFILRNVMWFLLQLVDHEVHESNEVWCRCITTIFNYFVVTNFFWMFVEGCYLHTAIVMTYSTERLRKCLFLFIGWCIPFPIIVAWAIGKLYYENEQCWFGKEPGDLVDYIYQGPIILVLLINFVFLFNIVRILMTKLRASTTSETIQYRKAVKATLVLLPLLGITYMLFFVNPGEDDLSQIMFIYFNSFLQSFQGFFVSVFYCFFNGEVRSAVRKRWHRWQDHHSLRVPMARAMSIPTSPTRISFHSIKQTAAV
How it was run: (§1)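 Stably expressing HEK293 clones received peptide concentration series in phosphodiesterase-inhibited buffer (0.25 mM IBMX, pH 7.4). After receptor-specific incubation (CRHR1 1 h at 37° C; CRHR2 30 min at room temperature), cells were lysed with HTRF cAMP reagents for 60 min and the 665/620 nm ratio recorded.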

human CRHR1 = target: T2, human CRHR1 (Homo sapiens, UniProt P34998); experiment: Human CRHR1 cAMP assay (HTRF) in HEK293 cells stably expressing human CRHR1; assay type: cell-based; conditions: HEK293 cells overexpressing human CRHR1; relative EC50, maximum 66 nM human UCN1; mean ± SE; read-out: hCRHR1 cAMP EC50 (pM, ± SE)
T2 construct: expressed in transfected cells
T2 sequence (P34998 24-415): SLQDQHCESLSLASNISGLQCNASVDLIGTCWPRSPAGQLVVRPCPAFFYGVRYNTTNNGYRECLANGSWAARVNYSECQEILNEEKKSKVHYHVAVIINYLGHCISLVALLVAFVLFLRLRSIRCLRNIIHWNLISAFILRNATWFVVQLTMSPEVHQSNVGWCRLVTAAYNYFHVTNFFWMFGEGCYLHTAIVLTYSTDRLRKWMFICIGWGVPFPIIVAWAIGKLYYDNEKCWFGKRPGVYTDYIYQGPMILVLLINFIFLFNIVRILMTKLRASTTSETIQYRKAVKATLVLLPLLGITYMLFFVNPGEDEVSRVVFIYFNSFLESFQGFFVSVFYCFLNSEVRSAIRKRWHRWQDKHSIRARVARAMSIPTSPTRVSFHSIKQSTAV
How it was run: as §1

Compound | EC50 (human CRHR2) | EC50 (human CRHR1)
CC[C@H](C)[C@H](NC)C(=O)N[C@H](C(=O)N[C@H](C(=O)N[C@@H](CO)C(=O)N[C@@H](CC(C)C)C(=O)N[C@@H](CC(=O)O)C(=O)N[C@H](C(=O)N1CCC[C@H]1C(=O)N[C@H](C(=O)NCC(=O)N[C@@](C)(CC(C)C)C(=O)N[C@@H](CC(C)C)C(=O)N[C@@H](CCC(N)=O)C(=O)N[C@@H](CCCCN)C(=O)N[C@@H](CC(C)C)C(=O)N[C@H](C(=O)N[C@@H](CCC(=O)O)C(=O)N[C@@H](CCC(N)=O)C(=O)N[C@@H](CCC(=O)O)C(=O)N[C@@H](CCCCN)C(=O)N[C@@H](CCC(N)=O)C(=O)N[C@@H](CCC(=O)O)C(=O)N[C@@H](CCCCN)C(=O)N[C@@H](CCC(=O)O)C(=O)N[C@@H](CCCCN)C(=O)N[C@@H](CCC(N)=O)C(=O)N[C@@H](CCC(N)=O)C(=O)N[C@@H](C)C(=O)N[C@@H](CCCCNC(=O)COCCOCCNC(=O)COCCOCCNC(=O)CC[C@H](NC(=O)CCCCCCCCCCCCCCCCCCC(=O)O)C(=O)O)C(=O)N[C@@H](CCC(=O)O)C(=O)N[C@@H](CC(N)=O)C(=O)N[C@H](C(=O)N[C@@H](CCC(=O)O)C(=O)N[C@H](C(=O)N[C@@H](CC(C)C)C(=O)N[C@@H](C)C(=O)N[C@@H](CCC(N)=O)C(=O)N[C@H](C(N)=O)C(C)C)[C@@H](C)CC)[C@@H](C)O)[C@@H](C)CC)[C@@H](C)CC)C(C)C)[C@@H](C)O)C(C)C [SEQ ID NO: 49, (NMeI) VTSLDVPIG αMeL LQKLIEQEKQEKEKQQAK((2-[2-(2-Amino-ethoxy)-ethoxy]-acetyl)2-γE-CO-(CH2)18-CO2H)ENTEILAQV-NH2] (H-[NMeI]VTSLDVPIG[αMeL]LQKLIEQEKQEKEKQQAK([AEEA-AEEA-γGlu-C20 diacid])ENTEILAQV-NH2) | 6.6 ± 0.9 pM | > 1e+07 pM
CC[C@H](C)[C@H](NC)C(=O)N[C@H](C(=O)N[C@H](C(=O)N[C@@H](CO)C(=O)N[C@@H](CC(C)C)C(=O)N[C@@H](CC(=O)O)C(=O)N[C@H](C(=O)N1CCC[C@H]1C(=O)N[C@H](C(=O)NCC(=O)N[C@@](C)(CC(C)C)C(=O)N[C@@H](CC(C)C)C(=O)N[C@@H](CCC(N)=O)C(=O)N[C@@H](CCCCN)C(=O)N[C@@H](CC(C)C)C(=O)N[C@@H](CC(C)C)C(=O)N[C@@H](CCC(=O)O)C(=O)N[C@@H](CCC(N)=O)C(=O)N[C@@H](CCC(=O)O)C(=O)N[C@@H](CCCNC(=N)N)C(=O)N[C@@H](C)C(=O)N[C@@H](CCC(=O)O)C(=O)N[C@@H](CCCCN)C(=O)N[C@@H](C)C(=O)N[C@@H](CCCNC(=N)N)C(=O)N[C@@H](CCC(N)=O)C(=O)N[C@@H](CCC(N)=O)C(=O)N[C@@H](C)C(=O)N[C@@H](CCCCNC(=O)COCCOCCNC(=O)COCCOCCNC(=O)CC[C@H](NC(=O)CCCCCCCCCCCCCCCCCCC(=O)O)C(=O)O)C(=O)N[C@@H](CCC(=O)O)C(=O)N[C@@H](C)C(=O)N[C@@H](C)C(=O)N[C@@H](CCC(=O)O)C(=O)N[C@H](C(=O)N[C@@H](CC(C)C)C(=O)N[C@@H](C)C(=O)N[C@@H](CCC(N)=O)C(=O)N[C@H](C(N)=O)C(C)C)[C@@H](C)CC)[C@@H](C)CC)C(C)C)[C@@H](C)O)C(C)C [SEQ ID NO: 50, (NMeI) VTSLDVPIG αMeL LQKLLEQERAEKARQQAK((2-[2-(2-Amino-ethoxy)-ethoxy]-acetyl)2-γE-CO-(CH2)18-CO2H)EAAEILAQV-NH2] (H-[NMeI]VTSLDVPIG[αMeL]LQKLLEQERAEKARQQAK([AEEA-AEEA-γGlu-C20 diacid])EAAEILAQV-NH2) | 22.4 ± 3.6 pM | > 1e+07 pM
CC[C@H](C)[C@H](NC(C)=O)C(=O)N[C@H](C(=O)N[C@H](C(=O)N[C@@H](CO)C(=O)N[C@@](C)(CC(C)C)C(=O)N[C@@H](CC(=O)O)C(=O)N[C@@H](C(=O)N1CCC[C@H]1C(=O)N[C@H](C(=O)NC(C)(C)C(=O)N[C@@](C)(CC(C)C)C(=O)N[C@@H](CC(C)C)C(=O)N[C@@H](CCC(N)=O)C(=O)N[C@H](C(=O)N[C@@H](CCCCN)C(=O)N[C@@H](CC(C)C)C(=O)N[C@@H](CCC(=O)O)C(=O)N[C@@H](CCC(N)=O)C(=O)N[C@@H](CCC(=O)O)C(=O)N[C@@H](CCCNC(=N)N)C(=O)N[C@@H](C)C(=O)N[C@@H](CCC(=O)O)C(=O)N[C@@H](CCCCN)C(=O)N[C@@H](C)C(=O)N[C@@H](CCCNC(=N)N)C(=O)N[C@@H](CCC(N)=O)C(=O)N[C@@H](CCC(N)=O)C(=O)N[C@@H](C)C(=O)N[C@@H](CCCCNC(=O)COCCOCCNC(=O)COCCOCCNC(=O)CC[C@H](NC(=O)CCCCCCCCCCCCCCCCCCC(=O)O)C(=O)O)C(=O)N[C@@H](CCC(=O)O)C(=O)N[C@@H](CC(N)=O)C(=O)N[C@H](C(=O)N[C@@H](CCC(=O)O)C(=O)N[C@H](C(=O)N[C@@H](CC(C)C)C(=O)N[C@@H](C)C(=O)N[C@@H](CCC(N)=O)C(=O)N[C@H](C(N)=O)C(C)C)[C@@H](C)CC)[C@@H](C)O)[C@@H](C)CC)[C@@H](C)O)C(C)C)[C@@H](C)O)C(C)C [SEQ ID NO: 41, Ac-IVTS αMeL D (D-Val) PT Aib αMeL LQIKLEQERAEKARQQAK((2-[2-(2-Amino-ethoxy)-ethoxy]-acetyl)2-γE-CO-(CH2)18-CO2H)ENTEILAQV-NH2] (Ac-IVTS[αMeL]D[dV]PT[Aib][αMeL]LQIKLEQERAEKARQQAK([AEEA-AEEA-γGlu-C20 diacid])ENTEILAQV-NH2) | 7 ± 0.9 pM | 3.7e+06 pM
Ac-PPPIVTS[αMeL]DVPT[Aib][αMeL]LQKLLEQERAEKARQQAK([γGlu-AEEA-εLys-C20 diacid])EAAEILAQV-NH2 [SEQ ID NO: 48, Ac-PPPIVTS αMeL DVPT Aib αMeL LQKLLEQERAEKARQQAK(γE-(2-[2-(2-Amino-ethoxy)-ethoxy]-acetyl)-ϵK-CO-(CH2)18-CO2H)EAAEILAQV-NH2] | 26.7 ± 3.8 pM | > 1e+07 pM

The remaining compounds from weak to strong by EC50 (human CRHR2), led by results:

EC50 (human CRHR2) | EC50 (human CRHR1) | Compound
12.3 ± 1.8 pM | > 1e+07 pM | Ac-GSPSIVTS[αMeL]DVPT[Aib][αMeL]LQKLLEQERAEKARQQAK([γGlu-AEEA-εLys-C20 diacid])EAAEILAQV-NH2 [SEQ ID NO: 2, Ac-GSPSIVTS αMeL DVPT Aib αMeL LQKLLEQERAEKARQQAK(γE-(2-[2-(2-Amino-ethoxy)-ethoxy]-acetyl)-ϵK-CO-(CH2)18-CO2H)EAAEILAQV-NH2]
5.6 ± 0.4 pM | > 1e+07 pM | CC[C@H](C)[C@H](NC(C)=O)C(=O)N[C@H](C(=O)N[C@H](C(=O)N[C@@H](CO)C(=O)N[C@@](C)(CC(C)C)C(=O)N[C@@H](CC(=O)O)C(=O)N[C@@H](C(=O)N1CCC[C@H]1C(=O)N[C@H](C(=O)NCC(=O)N[C@@](C)(CC(C)C)C(=O)N[C@@H](CC(C)C)C(=O)N[C@@H](CCC(N)=O)C(=O)N[C@H](C(=O)N[C@@H](CCCCN)C(=O)N[C@@H](CC(C)C)C(=O)N[C@@H](CCC(=O)O)C(=O)N[C@@H](CCC(N)=O)C(=O)N[C@@H](CCC(=O)O)C(=O)N[C@@H](CCCNC(=N)N)C(=O)N[C@@H](C)C(=O)N[C@@H](CCC(=O)O)C(=O)N[C@@H](CCCCN)C(=O)N[C@@H](C)C(=O)N[C@@H](CCCNC(=N)N)C(=O)N[C@@H](CCC(N)=O)C(=O)N[C@@H](CCC(N)=O)C(=O)N[C@@H](C)C(=O)N[C@@H](CCCCNC(=O)COCCOCCNC(=O)COCCOCCNC(=O)CC[C@H](NC(=O)CCCCCCCCCCCCCCCCCCC(=O)O)C(=O)O)C(=O)N[C@@H](CCC(=O)O)C(=O)N[C@@H](CC(N)=O)C(=O)N[C@H](C(=O)N[C@@H](CCC(=O)O)C(=O)N[C@H](C(=O)N[C@@H](CC(C)C)C(=O)N[C@@H](C)C(=O)N[C@@H](CCC(N)=O)C(=O)N[C@H](C(N)=O)C(C)C)[C@@H](C)CC)[C@@H](C)O)[C@@H](C)CC)[C@@H](C)O)C(C)C)[C@@H](C)O)C(C)C [SEQ ID NO: 29, Ac-IVTS αMeL D (D-Val) PTG αMeL LQIKLEQERAEKARQ QAK((2-[2-(2-Amino-ethoxy)-ethoxy]-acetyl)2-γE-CO-(CH2)18-CO2H)ENTEILAQV-NH2] (Ac-IVTS[αMeL]D[dV]PTG[αMeL]LQIKLEQERAEKARQQAK([AEEA-AEEA-γGlu-C20 diacid])ENTEILAQV-NH2)
